Experimental data: PubChem BioAssay AID2060493 (Molecular Pharmacology Branch, DTP, NCI, 2025)

Tested on: 616215-338-R-J1-PDC tumor spheroids, viability
Test: Anticancer human tumor 616215-338-R-J1-PDC patient-derived colon adenocarcinoma cell line growth inhibition [GQUAD]
Conditions: spheroids with HUVEC and MSC; for IC50: curve of first compound; for viability, T/C: stronger effect = lower value; active means viability on the fitted dose curve at most 10% of control; inactive means the rest
Summary of the method: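 Tumor cells were grown as complex spheroids with HUVEC endothelial cells and mesenchymal stem cells as stroma. G-quadruplex stabilizers were combined with targeted agents over half-log dilutions from near the clinical Cmax, or from 10 microM.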

[1] = second compound 0.0316 µM, first compound 0.0316 µM
[2] = second compound 0.0316 µM, first compound 0.316 µM
[3] = second compound 0.1 µM, first compound 0.0316 µM
[4] = second compound 0.1 µM, first compound 0.316 µM
[5] = second compound 0.316 µM, first compound 0.0316 µM
[6] = second compound 0.316 µM, first compound 0.316 µM
[7] = second compound 1 µM, first compound 0.0316 µM
[8] = second compound 1 µM, first compound 0.316 µM
[9] = second compound 3.16 µM, first compound 0.0316 µM
[10] = second compound 3.16 µM, first compound 0.316 µM
[11] = second compound 10 µM, first compound 0.0316 µM
[12] = second compound 10 µM, first compound 0.316 µM
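Further: spheroids exposed to agents for 7 days before readout.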
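Wherever viability, T/C is given: percent viability relative to DMSO vehicle control wells taken as 100%.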

CCc1c2c(nc3ccc(O)cc13)-c1cc3c(c(=O)n1C2)COC(=O)[C@]3(O)CC + CN(C)c1ccc(Nc2c3ccc(NC(=O)CCN4CCCC4)cc3nc3cc(NC(=O)CCN4CCCC4)ccc23)cc1
12.4 nM: IC50 (second compound 1 µM)
inactive: viability, T/C (second compound 0.0316 µM, first compound 0.000999 µM) 93.8% | viability, T/C (second compound 0.0316 µM, first compound 0.00316 µM) 92.4% | viability, T/C (second compound 0.0316 µM, first compound 0.00999 µM) 53.7% | viability, T/C [1] 32.6% | viability, T/C (second compound 0.0316 µM, first compound 0.0999 µM) 18.1% | viability, T/C [2] 8.35% | viability, T/C (second compound 0.1 µM, first compound 0.000999 µM) 112% | viability, T/C (second compound 0.1 µM, first compound 0.00316 µM) 99.8% | viability, T/C (second compound 0.1 µM, first compound 0.00999 µM) 70.3% | viability, T/C [3] 28.9% | viability, T/C (second compound 0.1 µM, first compound 0.0999 µM) 13.8% | viability, T/C [4] 12.4% | viability, T/C (second compound 0.316 µM, first compound 0.000999 µM) 101% | viability, T/C (second compound 0.316 µM, first compound 0.00316 µM) 96.7% | viability, T/C (second compound 0.316 µM, first compound 0.00999 µM) 59.9% | viability, T/C [5] 27% | viability, T/C (second compound 0.316 µM, first compound 0.0999 µM) 18% | viability, T/C [6] 8.81% | viability, T/C (second compound 1 µM, first compound 0.000999 µM) 97.3% | viability, T/C (second compound 1 µM, first compound 0.00316 µM) 94.3% | viability, T/C (second compound 1 µM, first compound 0.00999 µM) 46.9% | viability, T/C [7] 35% | viability, T/C (second compound 1 µM, first compound 0.0999 µM) 20.5% | viability, T/C [8] 10.3% | viability, T/C (second compound 3.16 µM, first compound 0.000999 µM) 98.3% | viability, T/C (second compound 3.16 µM, first compound 0.00316 µM) 86.8% | viability, T/C (second compound 3.16 µM, first compound 0.00999 µM) 49.3% | viability, T/C [9] 30.2% | viability, T/C (second compound 3.16 µM, first compound 0.0999 µM) 19.3% | viability, T/C [10] 12.6% | viability, T/C (second compound 10 µM, first compound 0.000999 µM) 95.7% | viability, T/C (second compound 10 µM, first compound 0.00316 µM) 73.9% | viability, T/C (second compound 10 µM, first compound 0.00999 µM) 46% | viability, T/C [11] 25.9% | viability, T/C (second compound 10 µM, first compound 0.0999 µM) 13.2%
active: viability, T/C [12] 8.62%
14.3 nM: IC50 (second compound 0.0316 µM)
14.6 nM: IC50 (second compound 0.316 µM)
17.4 nM: IC50 (second compound 0.1 µM)
8.62 nM: IC50 (second compound 10 µM)
11.3 nM: IC50 (second compound 3.16 µM)

COc1cc(C2c3cc4c(cc3C(OC3OC5COC(C)OC5C(O)C3O)C3COC(=O)C23)OCO4)cc(OC)c1O (centres undefined) + CN(C)c1ccc(Nc2c3ccc(NC(=O)CCN4CCCC4)cc3nc3cc(NC(=O)CCN4CCCC4)ccc23)cc1
644 nM: IC50 (second compound 3.16 µM)
762 nM: IC50 (second compound 1 µM)
655 nM: IC50 (second compound 0.1 µM)
967 nM: IC50 (second compound 0.0316 µM)
inactive: viability, T/C [1] 99.3% | viability, T/C (second compound 0.0316 µM, first compound 0.1 µM) 103% | viability, T/C [2] 67.8% | viability, T/C (second compound 0.0316 µM, first compound 1 µM) 51.9% | viability, T/C (second compound 0.0316 µM, first compound 3.16 µM) 31.9% | viability, T/C (second compound 0.0316 µM, first compound 10 µM) 20.7% | viability, T/C [3] 94.7% | viability, T/C (second compound 0.1 µM, first compound 0.1 µM) 107% | viability, T/C [4] 71.6% | viability, T/C (second compound 0.1 µM, first compound 1 µM) 37.5% | viability, T/C (second compound 0.1 µM, first compound 3.16 µM) 31% | viability, T/C (second compound 0.1 µM, first compound 10 µM) 18.7% | viability, T/C [5] 100% | viability, T/C (second compound 0.316 µM, first compound 0.1 µM) 95.6% | viability, T/C [6] 63.4% | viability, T/C (second compound 0.316 µM, first compound 1 µM) 41% | viability, T/C (second compound 0.316 µM, first compound 3.16 µM) 33.1% | viability, T/C (second compound 0.316 µM, first compound 10 µM) 16.6% | viability, T/C [7] 100% | viability, T/C (second compound 1 µM, first compound 0.1 µM) 91.6% | viability, T/C [8] 58.5% | viability, T/C (second compound 1 µM, first compound 1 µM) 44.6% | viability, T/C (second compound 1 µM, first compound 3.16 µM) 34.3% | viability, T/C (second compound 1 µM, first compound 10 µM) 14.2% | viability, T/C [9] 96.4% | viability, T/C (second compound 3.16 µM, first compound 0.1 µM) 85% | viability, T/C [10] 55.9% | viability, T/C (second compound 3.16 µM, first compound 1 µM) 43.6% | viability, T/C (second compound 3.16 µM, first compound 3.16 µM) 31.6% | viability, T/C (second compound 3.16 µM, first compound 10 µM) 15.9% | viability, T/C [11] 97.2% | viability, T/C (second compound 10 µM, first compound 0.1 µM) 83.2% | viability, T/C [12] 52.6% | viability, T/C (second compound 10 µM, first compound 1 µM) 40% | viability, T/C (second compound 10 µM, first compound 3.16 µM) 25.9% | viability, T/C (second compound 10 µM, first compound 10 µM) 15%
491 nM: IC50 (second compound 10 µM)
693 nM: IC50 (second compound 0.316 µM)
